From patent US20230143604A1, “QW DOSING OF GIP RECEPTOR AGONIST PEPTIDE COMPOUNDS AND USES THEREOF” (TAKEDA PHARMACEUTICAL COMPANY LIMITED, priority 2020, published 2023) come the findings set out here.

The test system of one data set is male ferrets. The format is in vivo. The protocol: 1. Effect of subcutaneously administered GIP receptor agonist peptide in morphine-induced acute emetic model.
To evaluate the antiemetic effect, the GIP receptor agonist peptides other than natural human GIP are subcutaneously administered into male ferrets 24 hrs before morphine administration. Up to 60 minutes after morphine administration, the condition of the ferrets is monitored to record the frequencies and time points of abdominal contraction motions, vomiting behaviors, licking with the tongue, and fidgety behavior occurring. GIP receptor agonist peptide compounds of the present disclosure dosed at 0.3-10 nmol/kg attenuated the morphine (0.6 mg/kg, s.c.)-induced emesis in the ferrets.
GIP receptor agonist peptides are dissolved with a vehicle (0.09 w/v % tween 80/10% DMSO/saline), respectively, to prepare test solutions. […] of the test solutions and the vehicle are subcutaneously administered to ferrets (4 in each group), respectively. At the time of each of 4 or 24 hours after administration, 0.6 mg/kg of morphine is subcutaneously administered.

A further data set relates to C57BL/6J mice. As to the kind of experiment: Oral glucose tolerance test (OGTT). The format is in vivo. To be noted: 3 nmol/kg s.c., 24 hours before glucose loading. A digest of the protocol: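 Peptide or vehicle given s.c. at 0.1, 0.3, 3 or 10 nmol/kg (peptide-dependent), 24 h before oral 50% dextrose at 5 ml/kg unless stated otherwise. Blood glucose read at 0, 15, 30 and 60 min. % inhibition = (1−(AUC cpd−AUC naïve)/(AUC veh−AUC naïve))×100.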

The next data set has as its target T1, human GLP-1R (Homo sapiens, UniProt P43220).
T1 construct: HEK-293T cells overexpressing full-length human GLP-1R; FLAG (N); host or cells: HEK-293T
As to the kind of experiment: Human GLP1R agonist activity, intracellular cAMP accumulation. The format is cell-based. As to conditions: HEK-293T cells overexpressing human GLP-1R, 1 hr, read-out: Human GLP1R cAMP EC50, HEK293T. A digest of the protocol:
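Frozen assay-ready cells washed and resuspended at 4×10^5 cells/mL in Krebs Ringer buffer, then incubated with compound 1 hr at room temperature in the dark. cAMP read by HTRF (anti-cAMP antibody, d2-cAMP tracer). Normalised to 1 nm GLP-1 (100%) and DMSO (0%).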
In general terms: Cyclic AMP is a second messenger, typically raised through Gs and lowered through Gi signalling.

The nature of another data set: physchem. The method, boiled down: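 3 mg of peptide treated with 100 μL portions of 200 mM phosphate buffer pH 7.4, sonicating/vortexing up to 1 min, with further buffer added until fully dissolved. Solubility then quantified by HPLC.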
Data set [1] in a line: Dog plasma protein binding (PPB). The format is in vitro ADME. To be noted: pH 7.4; fraction unbound; dog serum; read-out: Dog PPB (FUplasma). The method, boiled down: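 Dog serum replaced human serum, with the protocol and analysis otherwise the same as for human plasma protein binding. Values are reported as fraction unbound (Fu,plasma) expressed as a percentage.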
Data set [2] in a line: Pharmacokinetics in dog after IV and SC dosing. To be noted: in vivo. The method, boiled down: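 Dogs were dosed IV or SC at 1 mL/kg with peptide at 3 nmol/mL in 10% DMSO/0.09% Polysorbate/PBS pH 7.4. K2-EDTA plasma was sampled to 336 h, and peptide was quantified by LCMS to derive half-life.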
The nature of data set [3]: Human plasma protein binding (PPB). The format is in vitro ADME. The method, boiled down:
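Peptides spiked at 1000 nmol/L into pooled human K2-EDTA plasma adjusted to pH 7.4, incubated 30 min at 37 °C, then ultracentrifuged at ~450,000 g, 4 °C for 3 h. Fu derived from LC-MS/MS (MRM) peak area ratios, supernatant versus plasma.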

In a further data set the test system is Dogs. The format is in vivo. As to conditions: 10 nmol/kg s.c. The protocol: Dogs are transferred to an observation cage (700 mm W×700 mm D×700 mm H [W×D×H], without food) on 1 day before each apomorphine challenge. The dogs are weighed by using an electronic balance then test peptide compounds and vehicle will be administrated via the subcutaneous route. Apomorphine is challenged at 8 hr after the administration and emetic events will be monitored for 1 h by video recording. The second apomorphine challenge will be 72 hr after the administration and emetic events will be recorded by the same protocol. Emesis symptoms are continuously recorded using a video camera and stored on a blue ray disc. Observation of symptoms include retching (a rhythmic contraction of the abdomen) and vomiting (vomiting behavior, including the elimination of vomitus or similar behavior). Besides, the combination of retching and vomiting is defined as emesis, and the number of episodes, latency (time elapsed from morphine administration until the onset of the first emesis symptom), duration (time elapsed between the onset of the first and final episodes of emesis), and frequency (number of animals showing emesis/number of experimental animals) of each of these symptoms is calculated. The latency in cases where emesis symptoms are not noted is taken as the maximum value (1 h for apomorphine challenge) at the end of observation. When the duration of the emesis symptoms is less than 1 min, the duration is recorded, for convenience, as 1 min.

Another data set deals with female beagle dogs. As to the kind of experiment: PYY-1119-induced vomiting in dogs. To be noted: 3 nmol/kg s.c., 72 hours post-dose (lower line). The format is in vivo. The protocol:
The GIPR agonist peptide compounds of the present disclosure or vehicle (0.09% [w/v] Tween 80/10% DMSO/PBS) were administered subcutaneously (sc) at 3-10 nmol/kg to female beagle dogs (10 months old), followed by sc injections with Y2R agonist ((4-imidazolecarbonyl-Ser-D-Hyp-Iva-Pya(4)-Cha-Leu(Me)-Asn-Lys-Aib-Thr-Arg-Gln-Arg-Cha-NH2), […]), […]) at 1 hour or specified hours in the table postdose. Emetic episodes were counted for 2 hours after administration (by blinded analysis).

Structures are written as SMILES. Like-named read-outs stand apart in the source and are kept apart here.

T1 sequence (P43220 24-463): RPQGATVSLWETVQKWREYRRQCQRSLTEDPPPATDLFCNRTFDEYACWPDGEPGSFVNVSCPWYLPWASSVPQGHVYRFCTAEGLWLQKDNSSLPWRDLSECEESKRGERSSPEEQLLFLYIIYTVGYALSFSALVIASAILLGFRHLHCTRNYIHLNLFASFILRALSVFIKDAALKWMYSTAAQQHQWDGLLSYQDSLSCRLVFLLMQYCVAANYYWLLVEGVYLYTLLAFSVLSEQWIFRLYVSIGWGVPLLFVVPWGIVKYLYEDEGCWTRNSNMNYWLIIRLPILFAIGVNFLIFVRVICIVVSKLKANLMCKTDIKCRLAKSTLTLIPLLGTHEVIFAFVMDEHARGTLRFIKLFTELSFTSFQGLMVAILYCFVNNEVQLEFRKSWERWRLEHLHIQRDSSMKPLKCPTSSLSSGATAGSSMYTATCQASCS

What is called EC50 is the concentration that produces a half-maximal response. Broadly, the solubility is how much of the substance goes into solution per volume. The term MRT last denotes a mean duration of stay, worked out from the concentration-time curve. `CC[C@H](C)[C@H](NC(=O)[C@H](CO)NC(=O)[C@H](Cc1ccc(O)cc1)NC(=O)[C@H](CC(=O)O)NC(=O)[C@H](CO)NC(=O)[C@@H](NC(=O)[C@H](Cc1ccccc1)NC(=O)[C@@H](NC(=O)CNC(=O)[C@H](CCC(=O)O)NC(=O)C(C)(C)NC(=O)[C@H](Cc1ccc(O)cc1)NC)[C@@H](C)O)[C@@H](C)CC)C(=O)N[C@@H](C)C(=O)N[C@@H](CCCCNC(=O)CNC(=O)CNC(=O)CNC(=O)CNC(=O)CNC(=O)CCCCCCCCCCCCCCCCC(=O)O)C(=O)N[C@@H](CC(=O)O)C(=O)N[C@@H](CCCNC(=N)N)C(=O)NC(C)(C)C(=O)N[C@@H](C)C(=O)N[C@@H](CCC(N)=O)C(=O)NC(C)(C)C(=O)N[C@@H](CC(=O)O)C(=O)N[C@@H](Cc1ccccc1)C(=O)N[C@H](C(=O)N[C@@H](CC(N)=O)C(=O)N[C@@H](Cc1c[nH]c2ccccc12)C(=O)N[C@@H](CC(C)C)C(=O)N[C@@H](CC(C)C)C(=O)N[C@@H](C)C(=O)N[C@@H](CCC(N)=O)C(=O)N[C@@H](CO)C(=O)N1CCC[C@H]1C(=O)NCC(=O)O)C(C)C` [Compound 84, Me-Y-Aib-E-G-T-F-I-S-D-Y-S-I-A-Km-D-R-Aib-A-Q-Aib-D-F-V-N-W-L-L-A-Q-S-P-G-OH]: in the data set on male ferrets (24 hrs, 1 nmol/kg s.c.), the “% inhibition of emetic events at doses (nmol/kg) and timepoints shown in ferret morphine model” value is 24 hrs: 65% (1 nmol/kg);. Besides, in the data set with male ferrets (morphine 0.6 mg/kg s.c., peptides dosed at 0.3-10 nmol/kg s.c.), the “effect on morphine-induced emesis in ferrets (in words)” value was “effective in completely inhibiting the frequency of emesis”. The “Oral Glucose Tolerance Test Percent decrease in blood glucose AUC (%) over 60 mins” value in the data set on C57BL/6J mice is recorded as 72% (3 nmol/kg). For the same compound, at human GLP-1R, the EC50 is 58.9 nM. For the same compound, the solubility is not below 15 mg/mL in the data set “physchem” (pH 7.4) and not below 60 mg/mL in “physchem” (pH 7.4, aqueous buffer). The fraction unbound was 0.0003 in data set [1] and 0.0009 in data set [3] (both sexes, pH 7.4, fraction unbound, human plasma, 1000 nmol/L peptide, ultracentrifugation, read-out: Human PPB (FUplasma)). Further, in data set [2] (IV 3 nmol/kg, read-out: IV T½ (converted)), the half-life was 62 h. In addition, in data set [2] (SC 3 nmol/kg, read-out: SC MRT 0-last), the mean residence time MRT last was 82 h. Also, the “free unbound peptide in human plasma (in words)” value in [3] (judged for once per week (QW) dosing) was “optimum free unbound peptide”.

Take `CC[C@H](C)[C@H](NC(=O)[C@H](Cc1ccccc1)NC(=O)[C@@H](NC(=O)CNC(=O)[C@H](CCC(=O)O)NC(=O)C(C)(C)NC(=O)[C@H](Cc1ccc(O)cc1)NC)[C@@H](C)O)C(=O)N[C@@H](CO)C(=O)N[C@@H](CC(=O)O)C(=O)N[C@@H](Cc1ccc(O)cc1)C(=O)N[C@@H](CO)C(=O)N[C@H](C(=O)NC(C)(C)C(=O)N[C@@H](CCCCNC(=O)CNC(=O)CNC(=O)CNC(=O)CNC(=O)CNC(=O)CCCCCCCCCCCCCCCCC(=O)O)C(=O)N[C@@H](CC(=O)O)C(=O)N[C@@H](CCCNC(=N)N)C(=O)NC(C)(C)C(=O)N[C@@H](C)C(=O)N[C@@H](CCC(N)=O)C(=O)NC(C)(C)C(=O)N[C@@H](CC(=O)O)C(=O)N[C@@H](Cc1ccccc1)C(=O)N[C@H](C(=O)N[C@@H](CCC(=O)O)C(=O)N[C@@H](Cc1c[nH]c2ccccc12)C(=O)N[C@@H](CC(C)C)C(=O)N[C@@H](CC(C)C)C(=O)N[C@@H](C)C(=O)N[C@@H](CCC(N)=O)C(=O)N[C@@H](CCCNC(=N)N)C(=O)NCC(=O)O)C(C)C)[C@@H](C)CC` [Compound 108]: the “% inhibition of emetic events at doses (nmol/kg) shown in dog apomorphine model” value with Dogs (after 8 hrs (upper)) is 50% (10 nmol/kg); with Dogs (after 72 hours (lower)), 54% (10 nmol/kg). Besides, the “Oral Glucose Tolerance Test Percent decrease in blood glucose AUC (%) over 60 mins” value in the data set on C57BL/6J mice is recorded as 65% (3 nmol/kg). For the same compound, on human GLP-1R, the EC50 was found to be 41.7 nM. The solubility in “physchem” (pH 7.4) is not below 15 mg/mL; in “physchem” (pH 7.4, aqueous buffer), not below 60 mg/mL. The “Inhibition (%) of PYY-1119-induced emetic event” value in the data set on female beagle dogs is 96% (3 nmol/kg).

For the compound `CC[C@H](C)[C@H](NC(=O)[C@H](CCCNC(=N)N)NC(=O)[C@H](CC(=O)O)NC(=O)[C@H](CCCCNC(=O)CNC(=O)CNC(=O)CNC(=O)CNC(=O)CNC(=O)CCCCCCCCCCCCCCCCC(=O)O)NC(=O)[C@H](C)NC(=O)[C@@H](NC(=O)[C@H](CO)NC(=O)[C@H](Cc1ccc(O)cc1)NC(=O)[C@H](CC(=O)O)NC(=O)[C@H](CO)NC(=O)[C@@H](NC(=O)[C@H](Cc1ccccc1)NC(=O)[C@@H](NC(=O)CNC(=O)[C@H](CCC(=O)O)NC(=O)C(C)(C)NC(=O)[C@H](Cc1ccc(O)cc1)NC)[C@@H](C)O)[C@@H](C)CC)[C@@H](C)CC)C(=O)N[C@@H](C)C(=O)N[C@@H](CCC(N)=O)C(=O)N[C@@H](CCCNC(=N)N)C(=O)N[C@@H](CC(N)=O)C(=O)N[C@@H](Cc1ccccc1)C(=O)N[C@H](C(=O)N[C@@H](CCC(=O)O)C(=O)N[C@@H](Cc1c[nH]c2ccccc12)C(=O)N[C@@H](CC(C)C)C(=O)N[C@@H](CC(C)C)C(=O)N[C@@H](C)C(=O)N[C@@H](CCC(N)=O)C(=O)N[C@@H](CO)C(=O)N1CCC[C@H]1C(=O)N[C@@H](CO)C(=O)N[C@@H](CO)C(=O)NCC(=O)N[C@@H](C)C(=O)N1CCC[C@H]1C(=O)N1CCC[C@H]1C(=O)N1CCC[C@H]1C(=O)N[C@@H](CO)C(=O)O)C(C)C` [Compound 179], the “Oral Glucose Tolerance Test Percent decrease in blood glucose AUC (%) over 60 mins” value with C57BL/6J mice was 58% (3 nmol/kg). In addition, the solubility in the data set “physchem” (pH 7.4, aqueous buffer, pH 7.4 Phosphate Buffer - Solubility, 200 mM Phosphate buffer pH 7.4) is not below 30 mg/mL; in “physchem” (pH 7.4, solubility in phosphate buffer at pH 7.4, 200 mM phosphate buffer pH 7.4) it was not below 15 mg/mL. The “Inhibition (%) of PYY-1119-induced emetic event” value in the data set with female beagle dogs is 45% (3 nmol/kg).
